# Reference: patent US9387160B2, “Composition and method of treating skin conditions” (Johnson & Johnson Consumer Holdings France, priority 2008, dated 2016)
# Experiments:
# [1] = Relative polarity index (RPI = log K, octanol/water partition coefficient); format: physicochemical; conditions: difference between Emollient RPI and Retinoid RPI
# Description: The relative polarity index (RPI) of an emollient is well known by the one skilled in the art. The methodology for its calculation is described in the article published by Wiesher et al. 2004 Int J. Cosmetic Science. 26, 173-182. RPI can be calculated from the octanol/water partition coefficient (K) with: RPI=log K. Partition coefficient estimations K have been published, for example in: • Leo A, Hansch C, and Elkins D (1971). “Partition coefficients and their uses”. Chem Rev 71 (6): 525-616. • Wilkinson, Andrew M.; McNaught, Alan D. (1997). “Partition Coefficient”. Compendium of Chemical Terminology: IUPAC Recommendations. Oxford: Blackwell Science. doi:10.1351/goldbook. ISBN 0-86542-684-8. http://goldbook.iupac.org/P0447.html and • Sangster, James (1997). Octanol-Water Partition Coefficients: Fundamentals and Physical Chemistry, Vol. 2 of Wiley Series in Solution Chemistry. Chichester: John Wiley & Sons Ltd. pp. 178 pages. The RPI of retinol is approximatively 1. The RPI of retinal and retinol esters are well-known by the one skilled in the art and are similar to RPI of retinol. The net RPI of an emollient to the retinoid is the difference between the Emollient RPI and the Retinoid RPI. The net RPI of a composition to the retinoid is the difference between the Composition RPI and the Retinoid RPI. […]
# [2] = RPI=log K, octanol/water; cited from earlier work
net relative polarity index to retinol [1],Molecule,RPI (relative polarity index) [2]
9.11,CCCCCCCCCCCCCC(C)C [isohexadecane],–
–,CC1=C(/C=C/C(C)=C/C=C/C(C)=C/CO)C(C)(C)CCC1 [retinol],~1
having the same polarity as retinol,PPG15 stearyl ether,–
